In paper PMC7284125, “Identification of annotated bioactive molecules that impair motility of the blood fluke Schistosoma mansoni” (International Journal for Parasitology: Drugs and Drug …, 2020):
Where two headings read alike, the source gives them in different places.

Key:
[1] = test system: S. mansoni schistosomulae; experiment: Motility assay on schistosomulae (pixel displacement, relative to DMSO control); type: cell-based, Schistosoma mansoni; conditions: for activity at 1 µM: Schistosoma mansoni, read-out: Fractional motility
Method in brief: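 Mechanically transformed S. mansoni schistosomulae (200/well) in Opti-MEM with 5% dialyzed FBS were exposed to compounds at 1 and 10 μM for 24 h at 37 °C, 5% CO2. Motility filmed at 10 frames/s for 1 min and quantified by pixel displacement relative to DMSO-treated controls.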

[2] = test system: S. mansoni schistosomulae; experiment: Phenotypic primary screen assay on schistosomulae (phenotype; viability by methylene blue dye exclusion); type: cell-based, Schistosoma mansoni
Method in brief: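 Parasites lacking contraction/relaxation cycles and showing dark internal granulations counted as dead. Movement and body shape were compared with DMSO-treated controls under a stereo microscope at 24 h and at five days of exposure. Larvae came from infected snails shed under light for 2 h at 32 °C.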

S. mansoni adult worms = experiment: Motility assay on adult parasites (pixel displacement, relative to DMSO control); type: cell-based, Schistosoma mansoni; conditions: 10 μM
Method in brief: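 Unpaired adult worms from mice 6 weeks post-infection kept in OPTI-MEM with 5% dialyzed FBS and exposed to compounds at 1 and 10 μM for 24 h. Motility filmed 1 min at 10 frames/s, quantified by pixel displacement versus DMSO-treated worms; recovery followed up to five days after washout.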

[3] = set-up: method as in Rybczynska et al., 2006; conditions: 1 mg/kg, normotensive rats; ref Rybczynska et al., 2006; cited from earlier work
human CaSR = test system: human CaSR; set-up: method as in Nemeth et al., 2001; conditions: ref Nemeth et al., 2001; cited from earlier work
SmD2 = SmD2 (Schistosoma mansoni, UniProt G4LUJ1); experiment: cell-based; type: cell-based
Sequence of SmD2 (G4LUJ1 entry or part of it): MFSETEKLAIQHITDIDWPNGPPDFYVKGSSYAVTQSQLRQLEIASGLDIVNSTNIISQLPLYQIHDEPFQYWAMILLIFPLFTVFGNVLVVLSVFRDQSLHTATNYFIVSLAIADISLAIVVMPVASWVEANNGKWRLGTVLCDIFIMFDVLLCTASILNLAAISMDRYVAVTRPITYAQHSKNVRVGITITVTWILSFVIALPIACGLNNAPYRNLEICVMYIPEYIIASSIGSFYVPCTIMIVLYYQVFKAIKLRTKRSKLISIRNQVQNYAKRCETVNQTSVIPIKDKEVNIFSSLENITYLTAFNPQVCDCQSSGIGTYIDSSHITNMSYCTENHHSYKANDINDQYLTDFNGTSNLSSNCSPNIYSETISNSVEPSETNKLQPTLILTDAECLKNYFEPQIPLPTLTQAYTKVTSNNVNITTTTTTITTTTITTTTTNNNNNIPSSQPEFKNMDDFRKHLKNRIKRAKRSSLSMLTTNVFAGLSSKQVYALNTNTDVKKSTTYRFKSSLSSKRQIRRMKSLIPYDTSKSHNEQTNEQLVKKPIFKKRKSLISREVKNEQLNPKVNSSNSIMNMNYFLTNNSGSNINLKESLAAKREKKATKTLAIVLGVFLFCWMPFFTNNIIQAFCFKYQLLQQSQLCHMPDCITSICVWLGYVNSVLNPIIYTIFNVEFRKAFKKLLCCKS

[4] = test system: S. mansoni schistosomulae; experiment: Phenotypic primary screen assay on schistosomulae (phenotype; viability by methylene blue dye exclusion); type: cell-based; conditions: Schistosoma mansoni; three-day-old schistosomulae, 10 μM, 24 h; calculated 5 days post compound exposure; read-out: Viability (%)

CC(C)(Cc1ccc2ccccc2c1)NC[C@@H](O)COc1cccc(Cl)c1C#N [NPS-2143]
Fractional motility ([1]; 1h, D1, 10 µM): -0.86
Fractional motility ([1]; 1h, D5, 10 µM): -0.00164
Fractional motility ([1]; 3h, D1, 10 µM): 0.27
Fractional motility ([1]; 3h, D5, 10 µM): -0.84
Fractional motility ([1]; 6h, D1, 10 µM): 14.69
Fractional motility ([1]; 6h, D5, 10 µM): -0.27
Fractional motility ([1]; NPS-2143 and analogs, 24h, D1, 1 µM): -0.50
Fractional motility ([1]; NPS-2143 and analogs, 24h, D1, 10 µM): 49.26
Fractional motility ([1]; NPS-2143 and analogs, 24h, D5, 1 µM): -0.09
Fractional motility ([1]; NPS-2143 and analogs, 24h, D5, 10 µM): -0.99
activity at 1 µM ([1]; 120 h, Selleckchem customized library secondary screen, 24h, D5, 1 µM): -9%
activity at 1 µM ([1]; Selleckchem customized library secondary screen, 24h, D1, 1 µM): -50%
Fractional motility ([1]; Selleckchem customized library secondary screen, 24h, D1, 10 µM): 49.26
Fractional motility ([1]; Selleckchem customized library secondary screen, 24h, D5, 10 µM): -0.99
hypermotility relative to control ([1]; schistosomulae, after 24 h incubation): up to 50 fold
motility phenotype in words ([1]; schistosomulae, long-term, five days after compound washout): complete paralysis
effect on viability of schistosomulae in words ([2]; 24 h incubation, five days): no effect on viability
Phenotype ([2]; three-day-old schistosomulae, 10 μM, 24 h, estimated 5 days post compound exposure): big, granulated
Fractional motility (S. mansoni adult worms; adult female worms, D1): -0.33
Fractional motility (S. mansoni adult worms; adult female worms, D5): -0.92
Fractional motility (S. mansoni adult worms; adult male worms, D1): -0.52
Fractional motility (S. mansoni adult worms; adult male worms, D5): -0.30
Fractional motility (S. mansoni adult worms; secondary screen, D1, Female adult worms): -0.33
Fractional motility (S. mansoni adult worms; secondary screen, D1, Male adult worms): -0.52
Fractional motility (S. mansoni adult worms; secondary screen, D5, Female adult worms): -0.92
Fractional motility (S. mansoni adult worms; secondary screen, D5, Male adult worms): -0.30
effect on blood pressure [3]: significantly increases blood pressure
IC50 (human CaSR): 43 nM
inhibition at 10 µM (SmD2; HEK293, SmD2 cells, 10 μM compound, 50 μM EPN, read-out: inhibition of EPN-evoked luminescence): 91.1%
IC50 (SmD2; inhibition of EPN-evoked luminescence, concentration-response assay, read-out: IC50): 2.53 ± 0.28 nM
viability at 10 µM [4]: 82%
